Assays:
HDAC1 = molecular target: T1, HDAC1 (Homo sapiens, UniProt Q13547); assay: HDAC-Glo I/II assay, HDAC1; format: biochemical; conditions: recombinant human HDAC1, HDAC-Glo; for IC50: read-out: pIC50 HDAC1 Glo (converted)
T1 construct: purchased BPS Bioscience 50051

HDAC2 = molecular target: T2, HDAC2 (Homo sapiens, UniProt Q92769); assay: HDAC-Glo I/II assay, HDAC2; format: biochemical; conditions: recombinant human HDAC2, HDAC-Glo; for IC50: read-out: pIC50 HDAC2 Glo (converted)
T2 construct: purchased BPS Bioscience 50002

HDAC3/NcoR2 complex = molecular target: T3, HDAC3/NcoR2 complex (Homo sapiens, UniProt O15379); assay: HDAC-Glo I/II assay, HDAC3/NcoR2 complex; format: biochemical; conditions: recombinant human HDAC3/NcoR2 complex; for IC50: read-out: pIC50 HDAC3 Glo (converted)
T3 construct: purchased BPS Bioscience 50003

HDAC6 = molecular target: T4, HDAC6 (Homo sapiens, UniProt Q9UBN7); assay: HDAC-Glo I/II assay, HDAC6; format: biochemical; conditions: recombinant human HDAC6, HDAC-Glo; read-out: pIC50 HDAC6 Glo (converted)
T4 construct: purchased BPS Bioscience 50006
T4 sequence (Q9UBN7 1-1215): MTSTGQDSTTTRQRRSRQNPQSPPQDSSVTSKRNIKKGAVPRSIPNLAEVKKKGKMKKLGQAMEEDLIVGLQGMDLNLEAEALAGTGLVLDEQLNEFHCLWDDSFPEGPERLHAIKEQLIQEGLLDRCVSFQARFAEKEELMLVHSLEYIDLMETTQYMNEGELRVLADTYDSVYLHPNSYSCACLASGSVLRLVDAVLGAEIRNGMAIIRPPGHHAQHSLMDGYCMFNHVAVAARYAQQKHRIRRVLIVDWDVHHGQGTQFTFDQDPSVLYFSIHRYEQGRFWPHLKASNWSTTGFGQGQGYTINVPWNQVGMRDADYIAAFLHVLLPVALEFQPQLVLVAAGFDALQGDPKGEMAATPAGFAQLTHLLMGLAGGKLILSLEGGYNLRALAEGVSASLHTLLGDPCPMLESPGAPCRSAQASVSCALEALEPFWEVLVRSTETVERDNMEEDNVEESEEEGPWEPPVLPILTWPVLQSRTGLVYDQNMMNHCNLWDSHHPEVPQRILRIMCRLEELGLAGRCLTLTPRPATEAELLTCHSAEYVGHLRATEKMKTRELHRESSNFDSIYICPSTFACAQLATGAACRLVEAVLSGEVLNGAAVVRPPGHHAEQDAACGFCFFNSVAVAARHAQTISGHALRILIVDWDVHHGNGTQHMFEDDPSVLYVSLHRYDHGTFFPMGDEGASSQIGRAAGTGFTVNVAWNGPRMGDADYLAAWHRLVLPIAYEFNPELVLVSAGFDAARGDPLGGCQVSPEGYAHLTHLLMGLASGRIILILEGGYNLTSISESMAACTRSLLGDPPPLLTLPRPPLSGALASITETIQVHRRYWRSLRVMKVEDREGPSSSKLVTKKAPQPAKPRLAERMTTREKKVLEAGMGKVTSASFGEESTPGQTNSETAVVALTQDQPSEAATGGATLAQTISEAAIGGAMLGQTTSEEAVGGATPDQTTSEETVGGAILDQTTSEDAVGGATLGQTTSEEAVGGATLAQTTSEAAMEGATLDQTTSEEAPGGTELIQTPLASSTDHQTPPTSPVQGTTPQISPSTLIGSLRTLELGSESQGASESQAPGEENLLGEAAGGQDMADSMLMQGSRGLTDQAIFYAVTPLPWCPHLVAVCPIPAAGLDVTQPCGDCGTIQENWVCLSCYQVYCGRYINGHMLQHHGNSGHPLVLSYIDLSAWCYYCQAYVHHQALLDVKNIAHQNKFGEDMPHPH

TwinStrep-GST-HDAC10 = molecular target: T5, TwinStrep-GST-HDAC10 (Homo sapiens, UniProt Q969S8); assay: HDAC10 TR-FRET assay (Tubastatin-AF647-Tracer displacement); format: binding; conditions: TR-FRET, 60 min at rt; for IC50: read-out: pIC50 HDAC10 FRET (converted)
T5 construct: made in house; host or cells: Sf21 insect cells (baculovirus, pFastBac1)
T5 sequence (Q969S8 1-669): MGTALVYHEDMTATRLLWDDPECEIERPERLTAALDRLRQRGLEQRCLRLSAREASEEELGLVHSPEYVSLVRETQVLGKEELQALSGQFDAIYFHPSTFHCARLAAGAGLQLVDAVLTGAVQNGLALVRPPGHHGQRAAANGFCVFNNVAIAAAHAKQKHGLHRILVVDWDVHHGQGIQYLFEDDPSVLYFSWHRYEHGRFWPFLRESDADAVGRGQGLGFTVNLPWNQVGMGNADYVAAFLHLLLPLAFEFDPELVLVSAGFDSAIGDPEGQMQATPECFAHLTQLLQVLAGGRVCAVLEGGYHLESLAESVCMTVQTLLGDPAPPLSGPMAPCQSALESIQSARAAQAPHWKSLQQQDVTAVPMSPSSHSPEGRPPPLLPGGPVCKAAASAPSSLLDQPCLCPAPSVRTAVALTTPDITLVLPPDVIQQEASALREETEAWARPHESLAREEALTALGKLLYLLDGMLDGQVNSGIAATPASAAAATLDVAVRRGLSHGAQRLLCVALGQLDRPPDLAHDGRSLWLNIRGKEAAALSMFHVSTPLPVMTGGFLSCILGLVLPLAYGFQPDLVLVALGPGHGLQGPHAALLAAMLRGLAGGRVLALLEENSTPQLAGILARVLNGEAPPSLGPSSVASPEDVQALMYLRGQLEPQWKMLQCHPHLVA

HDAC8 = molecular target: T6, HDAC8 (Homo sapiens, UniProt Q9BY41); assay: HDAC-Glo I/II assay, HDAC8; format: biochemical; parameters: purchased BPS Bioscience 50008; conditions: recombinant human HDAC8, HDAC-Glo; for IC50: read-out: pIC50 HDAC8 Glo (converted)
T6 sequence (Q9BY41 1-377): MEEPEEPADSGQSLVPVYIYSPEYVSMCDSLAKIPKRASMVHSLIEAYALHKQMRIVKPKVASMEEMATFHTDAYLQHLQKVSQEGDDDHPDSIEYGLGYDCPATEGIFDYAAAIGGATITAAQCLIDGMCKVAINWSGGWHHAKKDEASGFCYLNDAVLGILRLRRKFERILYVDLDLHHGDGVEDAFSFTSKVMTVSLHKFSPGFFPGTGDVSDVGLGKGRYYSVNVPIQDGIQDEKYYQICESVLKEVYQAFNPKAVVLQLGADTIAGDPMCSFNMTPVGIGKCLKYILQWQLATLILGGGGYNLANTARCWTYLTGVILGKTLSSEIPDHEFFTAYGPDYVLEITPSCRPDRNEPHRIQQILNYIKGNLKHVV

T1 sequence (Q13547 whole entry): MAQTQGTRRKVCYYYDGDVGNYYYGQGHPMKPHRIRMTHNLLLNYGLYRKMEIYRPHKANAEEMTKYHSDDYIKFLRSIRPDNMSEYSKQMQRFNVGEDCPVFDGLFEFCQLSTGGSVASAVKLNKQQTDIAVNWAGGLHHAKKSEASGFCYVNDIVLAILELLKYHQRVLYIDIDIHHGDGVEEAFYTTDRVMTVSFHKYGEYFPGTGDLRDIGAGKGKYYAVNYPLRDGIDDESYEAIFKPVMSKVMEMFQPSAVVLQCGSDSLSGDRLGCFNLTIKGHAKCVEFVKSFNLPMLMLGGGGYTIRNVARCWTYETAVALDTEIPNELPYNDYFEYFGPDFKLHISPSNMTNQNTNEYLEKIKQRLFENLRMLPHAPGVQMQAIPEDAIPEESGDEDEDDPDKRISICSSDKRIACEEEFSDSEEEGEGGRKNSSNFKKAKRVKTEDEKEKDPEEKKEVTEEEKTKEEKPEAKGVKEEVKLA
T3 sequence (O15379 whole entry): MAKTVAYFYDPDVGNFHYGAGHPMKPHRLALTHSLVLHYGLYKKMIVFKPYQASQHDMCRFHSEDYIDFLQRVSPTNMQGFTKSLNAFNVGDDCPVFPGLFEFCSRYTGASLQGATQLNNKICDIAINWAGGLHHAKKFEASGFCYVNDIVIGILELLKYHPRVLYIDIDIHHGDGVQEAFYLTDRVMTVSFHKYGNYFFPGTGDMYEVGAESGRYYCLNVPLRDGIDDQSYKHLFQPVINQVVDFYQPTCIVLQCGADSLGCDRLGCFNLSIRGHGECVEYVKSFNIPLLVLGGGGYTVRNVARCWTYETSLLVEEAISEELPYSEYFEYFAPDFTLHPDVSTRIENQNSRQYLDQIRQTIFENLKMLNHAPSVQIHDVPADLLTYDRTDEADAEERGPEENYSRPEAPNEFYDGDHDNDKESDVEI
T3 sequence (Q9Y618 395-489 partner limits assumed): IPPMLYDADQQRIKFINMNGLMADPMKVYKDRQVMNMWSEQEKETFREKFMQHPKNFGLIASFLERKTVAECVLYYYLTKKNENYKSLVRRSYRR
T2 sequence (Q92769 whole entry): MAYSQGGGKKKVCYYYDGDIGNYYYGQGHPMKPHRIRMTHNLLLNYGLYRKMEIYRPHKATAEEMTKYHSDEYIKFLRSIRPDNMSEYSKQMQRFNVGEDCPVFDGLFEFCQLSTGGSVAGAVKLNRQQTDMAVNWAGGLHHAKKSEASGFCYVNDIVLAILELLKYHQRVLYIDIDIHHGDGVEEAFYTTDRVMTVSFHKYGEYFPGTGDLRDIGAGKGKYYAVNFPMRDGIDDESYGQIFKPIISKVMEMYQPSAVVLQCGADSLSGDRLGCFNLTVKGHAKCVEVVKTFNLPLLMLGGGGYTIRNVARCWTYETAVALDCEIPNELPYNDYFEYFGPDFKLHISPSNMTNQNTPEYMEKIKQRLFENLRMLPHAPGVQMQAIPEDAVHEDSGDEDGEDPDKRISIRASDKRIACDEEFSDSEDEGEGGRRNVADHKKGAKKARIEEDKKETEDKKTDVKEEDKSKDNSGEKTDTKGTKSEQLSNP

Compound | IC50 (HDAC1) | IC50 (HDAC2) | IC50 (HDAC3/NcoR2 complex) | IC50 (HDAC6) | IC50 (TwinStrep-GST-HDAC10) | IC50 (HDAC8) | pIC50 HDAC1 Glo (HDAC1) | pIC50 HDAC2 Glo (HDAC2) | pIC50 HDAC3 Glo (HDAC3/NcoR2 complex) | pIC50 HDAC10 FRET (TwinStrep-GST-HDAC10) | pIC50 HDAC8 Glo (HDAC8)
CN(CCCC(=O)NO)CCC(=O)Nc1ccccc1 [DKFZ-711] | – | – | 79.4 µM | – | – | 3.98 µM | – | – | – | – | –
CN(CCCC(=O)NO)CCNC(=O)c1ccc(O)cc1 [DKFZ-751, 4-Hydroxy-N-(2-((4-(hydroxyamino)-4-oxobutyl)(methyl)amino)ethyl)benzamide] | 15.8 µM | > 100 µM | > 100 µM | 2 µM | 0.00794 µM | 25.1 µM | – | – | – | – | –
CN(CCCC(=O)NO)CCNC(=O)c1ccc(N)cc1 [DKFZ-752, 4-Amino-N-(2-((4-(hydroxyamino)-4-oxobutyl)(methyl)amino)ethyl)benzamide] | 15.8 µM | > 100 µM | > 100 µM | 3.98 µM | 0.0158 µM | 20 µM | – | – | – | – | –
CN(CCCC(=O)NO)CC(=O)Nc1ccccc1 [DKFZ-772, N-Hydroxy-4-(methyl(2-oxo-2-(phenylamino)ethyl)amino)butanamide] | 20 µM | 31.6 µM | > 100 µM | – | – | 2.51 µM | – | – | – | – | –
CCN(CCCC(=O)NO)CCC(=O)Nc1ccccc1 [DKFZ-714, 4-(Ethyl(3-oxo-3-(phenylamino)propyl)amino)-N-hydroxybutanamide] | 50.1 µM | > 200 µM | ~158 µM | 6.31 µM | – | 5.01 µM | – | – | – | – | –
(1r,3r)-N-Hydroxy-3-((3-oxo-3-(phenylamino)propyl)amino)cyclobutanecarboxamide [DKFZ-759] | – | – | – | – | – | – | 4.4 | <4.0 | <4.0 | 6.3 | 4.9
(1s,3s)-N-Hydroxy-3-((3-oxo-3-(phenylamino)propyl)amino)cyclobutanecarboxamide [DKFZ-767] | – | – | – | – | – | – | 4.9 | 4.6 | ~4.0 | 6.9 | 5.1
CN(CCCC(=O)NO)CCNC(=O)c1ccc(-c2ccccc2)cc1 [DKFZ-746, N-(2-((4-(Hydroxyamino)-4-oxobutyl)(methyl)amino)ethyl)-[1,1′-biphenyl]-4-carboxamide] | 2.51 µM | ~39.8 µM | ~31.6 µM | 3.16 µM | 0.0251 µM | 5.01 µM | – | – | – | – | –
CN(CCCC(=O)NO)CCNS(=O)(=O)c1ccccc1 [DKFZ-758, N-Hydroxy-4-(methyl(2-(phenylsulfonamido)ethyl)amino)butanamide] | 25.1 µM | > 100 µM | > 100 µM | 6.31 µM | 0.0316 µM | 6.31 µM | – | – | – | – | –

Now from value to compound, other results behind:

IC50 (HDAC1) | IC50 (HDAC2) | IC50 (HDAC3/NcoR2 complex) | IC50 (HDAC6) | IC50 (TwinStrep-GST-HDAC10) | IC50 (HDAC8) | Compound | pIC50 HDAC1 Glo (HDAC1) | pIC50 HDAC2 Glo (HDAC2) | pIC50 HDAC3 Glo (HDAC3/NcoR2 complex) | pIC50 HDAC10 FRET (TwinStrep-GST-HDAC10) | pIC50 HDAC8 Glo (HDAC8)
7.94 µM | > 100 µM | ~79.4 µM | 1.58 µM | 0.02 µM | 5.01 µM | Cc1[nH]c2ccccc2c1C(=O)NCCN(C)CCCC(=O)NO [DKFZ-756, N-(2-((4-(Hydroxyamino)-4-oxobutyl)(methyl)amino)ethyl)-2-methyl-1H-indole-3-carboxamide] | – | – | – | – | –
50.1 µM | 79.4 µM | > 100 µM | 25.1 µM | 0.02 µM | 25.1 µM | CN(CCCNC(=O)c1ccccc1)CCCC(=O)NO [DKFZ-806, N-(3-((4-(Hydroxyamino)-4-oxobutyl)(methyl)amino)propyl)benzamide] | – | – | – | – | –
7.94 µM | 15.8 µM | > 100 µM | 0.631 µM | 0.00501 µM | 2 µM | CN(CCCC(=O)NO)CCNC(=O)c1ccc(O)c2ccccc12 [DKFZ-776, 4-Hydroxy-N-(2-((4-(hydroxyamino)-4-oxobutyl)(methyl)amino)ethyl)-1-naphthamide] | – | – | – | – | –
10 µM | > 100 µM | > 100 µM | 3.16 µM | 0.0794 µM | 2.51 µM | Cc1[nH]c2ccccc2c1CC(=O)NCCN(C)CCCC(=O)NO [DKFZ-749, N-Hydroxy-4-(methyl(2-(2-(2-methyl-1H-indol-3-yl)acetamido)ethyl)amino)butanamide] | – | – | – | – | –
63.1 µM | > 100 µM | > 100 µM | 12.6 µM | 0.0316 µM | 63.1 µM | CN(CCCC(=O)NO)CCNC(=O)c1ccccc1O [DKFZ-755, 2-Hydroxy-N-(2-((4-(hydroxyamino)-4-oxobutyl)(methyl)amino)ethyl)benzamide] | – | – | – | – | –
25.1 µM | > 100 µM | > 100 µM | 6.31 µM | 0.0398 µM | 12.6 µM | CN(CCCC(=O)NO)CCNC(=O)c1cccc(N)c1 [DKFZ-747, 3-Amino-N-(2-((4-(hydroxyamino)-4-oxobutyl)(methyl)amino)ethyl)benzamide] | – | – | – | – | –
2.51 µM | 5.01 µM | ~39.8 µM | 1.26 µM | 0.00501 µM | 1.58 µM | CN(CCCC(=O)NO)CCNC(=O)c1ccc2ccccc2c1 [DKFZ-769, N-(2-((4-(Hydroxyamino)-4-oxobutyl)(methyl)amino)ethyl)-2-naphthamide] | – | – | – | – | –
– | 50.1 µM | > 100 µM | – | – | 15.8 µM | CN(CCCC(=O)NO)CCNC(=O)c1ccccc1 [DKFZ-728, N-(2-((4-(Hydroxyamino)-4-oxobutyl)(methyl)amino)ethyl)benzamide] | – | – | – | – | –
~39.8 µM | 50.1 µM | > 100 µM | 12.6 µM | 0.00794 µM | 10 µM | CN(CCCC(=O)NO)CCCc1nc2ccccc2[nH]1 [DKFZ-805, 4-((3-(Benzimidazol-2-yl)propyl)(methyl)amino)-N-hydroxybutanamide] | – | – | – | – | –
